Experimental data: patent US6740673B2, “Quarternary ammonium compounds” (UCB Farchim SA, priority 1998, dated 2004)

System: cough responses induced by citric acid (1M) aerosol in conscious guinea-pigs
Assay: Antitussive activity against citric acid aerosol-induced cough in conscious guinea-pigs
Type: in vivo, guinea-pig (male albino Dunkin-Hartley)
Settings: aerosol pre-treatment at 10.0 mg/ml immediately before citric acid (1M) exposure; for inhibition of cough responses compared with vehicle: vs vehicle (distilled water), 15 minute observation period
Text: The following method was one of the general methods available to determine the antitussive activity of the compounds of the present invention.
Male albino Dunkin-Hartley strain guinea-pigs (weight 300-400 g) were supplied by Harlan UK Ltd., Bicester, Oxon, UK.
The method used was modified from that described by Adcock J. J., Schneider C. and Smith T. W., “Effects of Morphine and a Novel Opioid Pentapeptide BW443C, on Cough, Nociception and Ventilation in the Unanaesthetized Guinea-pig”, Br. J. Pharmacol., 93, 93-100 (1988). Individual conscious guinea-pigs were placed unrestrained into a sealed purpose built perspex exposure chamber (3,000 cm^3 volume) and allowed to acclimatize prior to aerosol administration.
Cylinder air was introduced into the exposure chamber at a flow rate of 1 liter/min, maintained by a needle valve and monitored by a rotameter. From the rotameter the air passed through the cup of an ultrasonic nebulizer (DeVilbis UltraNeb 2000) which was used to generate aerosols of drug or citric acid at 0.15 ml/min. A Fleisch pneumotachograph, connected to a differential pressure transducer (Grass model PT5) was attached to the outflow from the exposure chamber and provided a measurement of airflow from the chamber. […]
Cough responses were induced by exposure to an aerosol of citric acid (1M) for 10 minutes. Animals were continuously monitored by trained observer, and the number of coughs were counted during a 15 minute period from commencement of the citric acid aerosol administration. […]
The three types of response were differentiated primarily by sound and visual observation. […] Data recorded for individual guinea-pigs on the Poh-Ne-Mah system was stored on an optical disk. Each cough was marked on the Grass polygraph paper trace, and from these record numbers, frequency and time of onset of coughs were determined. […]
Quantities of drugs were weighed out and dissolved in a vehicle. […] The sequence of pre-treatment administration was determined according to a 4×4 Latin Square design. […]

C[N+](C)(CC(=O)Nc1ccccc1)CC(=O)N1CCc2ccccc21.[Cl-] [Compound 2, N-[(1-Indolinyl)carbonylmethyl]-N-(phenylcarbamoylmethyl) dimethylammonium chloride]
inhibition of cough responses compared with vehicle: 56%

CC[N+](CC)(CC)CC(=O)N1CCc2ccccc21 [Compound 3, N-[(1-Indolinyl)carbonylmethyl]triethylammonium chloride]
prolongation of mean latency of cough onset (time to first recorded cough): 2.5 fold
inhibition of cough responses compared with vehicle: 36%
